# ChEMBL document CHEMBL1201862, “PubChem BioAssay data set” (2004)
#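 Protocol summary: plate cells (96-well), add compound at 5 concentrations, incubate 48 h, interpolate endpoints linearly. Here, GI50 denotes the concentration required for 50% inhibition of growth.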 Calls of active or inactive are those of the source. Rule as the data show it: active = GI50 up to about 1.1 µM and inactive = higher.
# Columns and labels:
# Assay in all cases: NCI-60 cell line screen, 48 h
# RPMI-8226 = test system: RPMI-8226
# RXF 393 = test system: RXF 393
# SK-MEL-28 = test system: SK-MEL-28
# LXFL 529 = test system: LXFL 529
# KM12 = test system: KM12
# UACC-62 = test system: UACC-62
# SF-295 = test system: SF-295
# UO-31 = test system: UO-31
# HOP-92 = test system: HOP-92
# SF-268 = test system: SF-268
# TK-10 = test system: TK-10
# SN12C = test system: SN12C
# HOP-62 = test system: HOP-62
# NCI-H460 = test system: NCI-H460
# NCI-H226 = test system: NCI-H226
# SF-539 = test system: SF-539
# NCI-H522 = test system: NCI-H522
# HCC 2998 = test system: HCC 2998
# IGROV-1 = test system: IGROV-1
# KM-20L2 = test system: KM-20L2
# Malme-3M = test system: Malme-3M
# DMS-114 = test system: DMS-114
# 786-0 = test system: 786-0
# RXF 631 = test system: RXF 631
# HL-60 = test system: HL-60
# HT-29 = test system: HT-29
# U-251 = test system: U-251
# M19-MEL = test system: M19-MEL
# EKVX = test system: EKVX
# DMS-273 = test system: DMS-273
# A498 = test system: A498
# K562 = test system: K562
# ACHN = test system: ACHN
# A549 = test system: A549
# OVCAR-5 = test system: OVCAR-5
# HCT-116 = test system: HCT-116
# SK-MEL-2 = test system: SK-MEL-2
# SK-MEL-5 = test system: SK-MEL-5
# LOX IMVI = test system: LOX IMVI
# MOLT-4 = test system: MOLT-4
# OVCAR-3 = test system: OVCAR-3
# HOP-18 = test system: HOP-18
# CAKI-1 = test system: CAKI-1
# UACC-257 = test system: UACC-257
# M14 = test system: M14
# SNB-75 = test system: SNB-75
# SNB-78 = test system: SNB-78
# SW-620 = test system: SW-620
# OVCAR-8 = test system: OVCAR-8
# NCI-H23 = test system: NCI-H23
# HCT-15 = test system: HCT-15
# DLD-1 = test system: DLD-1
# XF498 = test system: XF498
# SNB-19 = test system: SNB-19
# SK-OV-3 = test system: SK-OV-3
# SR = test system: SR
# CCRF-CEM = test system: CCRF-CEM
# OVCAR-4 = test system: OVCAR-4
# COLO 205 = test system: COLO 205
structure (smiles),measurement,setting,value
CCCc1nc(NC#N)nc(C(=O)Nc2ccccc2)c1CC,GI50,RPMI-8226,> 100 µM (inactive)
same,GI50,RXF 393,> 100 µM (inactive)
same,GI50,SK-MEL-28,> 100 µM (inactive)
same,GI50,LXFL 529,> 100 µM (inactive)
same,GI50,KM12,> 100 µM (inactive)
same,GI50,UACC-62,> 100 µM (inactive)
same,GI50,SF-295,> 100 µM (inactive)
same,GI50,UO-31,> 100 µM (inactive)
same,GI50,HOP-92,> 100 µM (inactive)
same,GI50,SF-268,> 100 µM (inactive)
same,GI50,TK-10,> 100 µM (inactive)
same,GI50,SN12C,> 100 µM (inactive)
same,GI50,HOP-62,> 100 µM (inactive)
same,GI50,NCI-H460,> 100 µM (inactive)
same,GI50,NCI-H226,> 100 µM (inactive)
same,GI50,SF-539,> 100 µM (inactive)
same,GI50,NCI-H522,> 100 µM (inactive)
same,GI50,HCC 2998,> 100 µM (inactive)
same,GI50,IGROV-1,> 100 µM (inactive)
same,GI50,KM-20L2,> 100 µM (inactive)
same,GI50,Malme-3M,> 100 µM (inactive)
same,GI50,DMS-114,> 100 µM (inactive)
same,GI50,786-0,> 100 µM (inactive)
same,GI50,RXF 631,> 100 µM (inactive)
same,GI50,HL-60,> 100 µM (inactive)
same,GI50,HT-29,> 100 µM (inactive)
same,GI50,U-251,> 100 µM (inactive)
same,GI50,M19-MEL,> 100 µM (inactive)
same,GI50,EKVX,> 100 µM (inactive)
same,GI50,DMS-273,> 100 µM (inactive)
same,GI50,A498,> 100 µM (inactive)
same,GI50,K562,> 100 µM (inactive)
same,GI50,ACHN,> 100 µM (inactive)
same,GI50,A549,> 100 µM (inactive)
same,GI50,OVCAR-5,> 100 µM (inactive)
same,GI50,HCT-116,> 100 µM (inactive)
same,GI50,SK-MEL-2,> 100 µM (inactive)
same,GI50,SK-MEL-5,> 100 µM (inactive)
same,GI50,LOX IMVI,> 100 µM (inactive)
same,GI50,MOLT-4,> 100 µM (inactive)
same,GI50,OVCAR-3,> 100 µM (inactive)
same,GI50,HOP-18,> 100 µM (inactive)
same,GI50,CAKI-1,> 100 µM (inactive)
same,GI50,UACC-257,> 100 µM (inactive)
same,GI50,M14,> 100 µM (inactive)
same,GI50,SNB-75,> 100 µM (inactive)
same,GI50,SNB-78,> 100 µM (inactive)
same,GI50,SW-620,> 100 µM (inactive)
same,GI50,OVCAR-8,> 100 µM (inactive)
same,GI50,NCI-H23,> 100 µM (inactive)
same,GI50,HCT-15,> 100 µM
same,GI50,DLD-1,> 100 µM (inactive)
same,GI50,XF498,> 100 µM (inactive)
same,GI50,SNB-19,> 100 µM (inactive)
Cc1ccc(C)c(N2C(=O)C(=O)C(c3nc4ccccc4s3)/C(=N/NC(=O)NN)C2=O)c1 (centres undefined),GI50,RXF 393,> 100 µM (inactive)
same,GI50,SK-MEL-28,> 100 µM (inactive)
same,GI50,SK-OV-3,> 100 µM (inactive)
same,GI50,LXFL 529,> 100 µM (inactive)
same,GI50,KM12,> 100 µM (inactive)
same,GI50,UACC-62,> 100 µM (inactive)
same,GI50,SF-295,> 100 µM (inactive)
same,GI50,UO-31,> 100 µM (inactive)
same,GI50,HOP-92,> 100 µM (inactive)
same,GI50,SF-268,> 100 µM (inactive)
same,GI50,TK-10,> 100 µM (inactive)
same,GI50,SR,> 100 µM (inactive)
same,GI50,SN12C,> 100 µM (inactive)
same,GI50,HOP-62,> 100 µM (inactive)
same,GI50,NCI-H460,> 100 µM (inactive)
same,GI50,NCI-H226,> 100 µM (inactive)
same,GI50,SF-539,> 100 µM (inactive)
same,GI50,NCI-H522,> 100 µM (inactive)
same,GI50,HCC 2998,> 100 µM (inactive)
same,GI50,CCRF-CEM,> 100 µM (inactive)
same,GI50,IGROV-1,> 100 µM (inactive)
same,GI50,KM-20L2,> 100 µM (inactive)
same,GI50,Malme-3M,> 100 µM (inactive)
same,GI50,DMS-114,> 100 µM (inactive)
same,GI50,786-0,> 100 µM (inactive)
same,GI50,RXF 631,> 100 µM (inactive)
same,GI50,HL-60,> 100 µM (inactive)
same,GI50,HT-29,> 100 µM (inactive)
same,GI50,U-251,> 100 µM (inactive)
same,GI50,M19-MEL,> 100 µM (inactive)
same,GI50,EKVX,> 100 µM (inactive)
same,GI50,DMS-273,> 100 µM (inactive)
same,GI50,A498,> 100 µM (inactive)
same,GI50,ACHN,> 100 µM (inactive)
same,GI50,A549,> 100 µM (inactive)
same,GI50,HCT-116,> 100 µM (inactive)
same,GI50,SK-MEL-2,> 100 µM (inactive)
same,GI50,SK-MEL-5,> 100 µM (inactive)
same,GI50,MOLT-4,> 100 µM (inactive)
same,GI50,OVCAR-3,> 100 µM (inactive)
same,GI50,HOP-18,> 100 µM (inactive)
same,GI50,CAKI-1,> 100 µM (inactive)
same,GI50,UACC-257,> 100 µM (inactive)
same,GI50,M14,> 100 µM (inactive)
same,GI50,OVCAR-4,> 100 µM (inactive)
same,GI50,SNB-75,> 100 µM (inactive)
same,GI50,COLO 205,> 100 µM (inactive)
same,GI50,SNB-78,> 100 µM (inactive)
same,GI50,SW-620,> 100 µM (inactive)
same,GI50,OVCAR-8,> 100 µM (inactive)
same,GI50,NCI-H23,> 100 µM (inactive)
same,GI50,HCT-15,> 100 µM
same,GI50,DLD-1,> 100 µM (inactive)
same,GI50,XF498,> 100 µM (inactive)
same,GI50,SNB-19,> 100 µM (inactive)
CCCCOC(=O)NC(=O)c1cn(CCCOC(=O)NCCCCCCNC(=O)OCCCn2cc(C(=O)NC(=O)OCCCC)c(=O)[nH]c2=O)c(=O)[nH]c1=O,GI50,RPMI-8226,> 100 µM (inactive)
same,GI50,RXF 393,> 100 µM (inactive)
same,GI50,SK-MEL-28,> 100 µM (inactive)
same,GI50,SK-OV-3,> 100 µM (inactive)
same,GI50,LXFL 529,90.4 µM (inactive)
same,GI50,KM12,> 100 µM (inactive)
same,GI50,UACC-62,> 100 µM (inactive)
same,GI50,SF-295,> 100 µM (inactive)
same,GI50,UO-31,> 100 µM (inactive)
same,GI50,HOP-92,23.6 µM (inactive)
same,GI50,SF-268,> 100 µM (inactive)
same,GI50,TK-10,41.8 µM (inactive)
same,GI50,SR,> 100 µM (inactive)
same,GI50,SN12C,> 100 µM (inactive)
same,GI50,HOP-62,> 100 µM (inactive)
same,GI50,NCI-H460,> 100 µM (inactive)
same,GI50,SF-539,> 100 µM (inactive)
same,GI50,NCI-H522,> 100 µM (inactive)
same,GI50,HCC 2998,> 100 µM (inactive)
same,GI50,IGROV-1,> 100 µM (inactive)
same,GI50,KM-20L2,> 100 µM (inactive)
same,GI50,Malme-3M,> 100 µM (inactive)
same,GI50,DMS-114,> 100 µM (inactive)
same,GI50,786-0,> 100 µM (inactive)
same,GI50,RXF 631,> 100 µM (inactive)
same,GI50,HL-60,> 100 µM (inactive)
same,GI50,HT-29,> 100 µM (inactive)
same,GI50,U-251,> 100 µM (inactive)
same,GI50,M19-MEL,> 100 µM (inactive)
same,GI50,EKVX,> 100 µM (inactive)
same,GI50,DMS-273,> 100 µM (inactive)
same,GI50,A498,> 100 µM (inactive)
same,GI50,K562,> 100 µM (inactive)
same,GI50,ACHN,> 100 µM (inactive)
same,GI50,A549,> 100 µM (inactive)
same,GI50,OVCAR-5,> 100 µM (inactive)
same,GI50,HCT-116,> 100 µM (inactive)
same,GI50,SK-MEL-2,> 100 µM (inactive)
same,GI50,SK-MEL-5,> 100 µM (inactive)
same,GI50,LOX IMVI,> 100 µM (inactive)
same,GI50,OVCAR-3,> 100 µM (inactive)
same,GI50,HOP-18,> 100 µM (inactive)
same,GI50,UACC-257,> 100 µM (inactive)
same,GI50,M14,> 100 µM (inactive)
same,GI50,OVCAR-4,> 100 µM (inactive)
same,GI50,SNB-75,> 100 µM (inactive)
same,GI50,COLO 205,> 100 µM (inactive)
same,GI50,SNB-78,> 100 µM (inactive)
same,GI50,SW-620,> 100 µM (inactive)
same,GI50,OVCAR-8,> 100 µM (inactive)
same,GI50,NCI-H23,44.6 µM (inactive)
same,GI50,HCT-15,> 100 µM
same,GI50,DLD-1,> 100 µM (inactive)
same,GI50,XF498,18.7 µM (inactive)
same,GI50,SNB-19,48.4 µM (inactive)
